The record followed here is patent US20060241163A1, “Optically active (S)-hydantoin derivative” (priority 2005, published 2006).

The test system of one data set is SD-strain rats. Nature of the data set: Acute toxicity test, single intravenous administration. The class given is in vivo. The note with it: once administered intravenously, SD-strain rats 6 weeks age. On the procedure: In an acute toxicity test where (±)-5-hydroxy-1-methylhydantoin was once administered intravenously to SD-strain rats (6 weeks age), there was no dead case even when the dose was 2,000 mg/kg, and so the lethal dose of the unchanged compound was presumed to be not less than 2,000 mg/kg. In the same toxicity test however, a lethal dose of the metabolite 1 was about 150 to 300 mg/kg. […] Furthermore, it was observed that the racemate caused the decrease of general symptoms such as passivity, tactile reaction, pain sensation reaction and ipsilateral flexor reaction at a dose of 200 mg/kg.

In another data set the test system is mice. Description: Minimum doses for expression of general symptoms after single oral administration. The format is in vivo.
Data set [1] concerns rat in which renal insufficiency was induced by adenine. Nature of the data set: Suppression of creatinine increase in adenine-induced renal insufficiency model rats. The class given is in vivo, Wistar-strain male rats. From the text: Adenine was orally administered to Wistar-strain male rats of eight weeks age to prepare a renal insufficiency model. […] Further, a value of creatinine clearance (mL/kg/hr) decreased from 315.3±13.8 to 25.7±4.4 whereupon renal functions lowered to about one-tenth.
From the 7th to the 17th days from administration of adenine, the test drug was orally administered to the rat in which renal insufficiency was induced by adenine. The creatinine levels in blood before and after the administration of the test drug were compared whereupon a suppressive action of the test drug to an increase of creatinine accompanied by the progress of renal insufficiency was checked. In a control group where no test drug was administered, an increase of creatinine to an extent of 4.37±0.76 mg/dL was noted while, in a group to which (S)-(−)-5-hydroxy-1-methylhydantoin (200 mg/kg/day) was administered, an increase of creatinine was suppressed to an extent of 2.72±0.55 mg/dL.

Data set [2] can be described thus: Pharmacokinetics in blood (unchanged compound and metabolites in plasma) in renal insufficiency model rats. The format is in vivo. The note with it: 100 mg/kg oral once, 23rd day from administration of adenine; compared with R-form and racemate; FIG. 1 and FIG. 2. On the procedure: After each 100 mg/kg of (S)-(−)-5-hydroxy-1-methylhydantoin, (R)-(+)-5-hydroxy-1-methylhydantoin, and racemate thereof was orally administered once to the above-mentioned model rats of renal insufficiency (on the 23rd day from administration of adenine), changes in concentration of an unchanged compound and metabolites (metabolite 1: 1-methylimidazolidintrion and metabolite 2: 5-methyloxaluric acid) in plasma were checked.

For `CN1C(=O)NC(=O)C1O` (racemic) [racemate, (±)-5-hydroxy-1-methylhydantoin, reference compound], the lethal dose result in the data set with SD-strain rats is recorded as “not less than 2,000 mg/kg”. Moreover, in the data set on mice (general symptoms observation, single oral administration to mice), the “dose causing decrease of general symptoms (passivity, tactile reaction, pain sensation reaction, ipsilateral flexor reaction)” value is listed as 200 mg/kg.
With `CN1C(=O)NC(=O)[C@H]1O` [R-form, (R)-(+)-5-hydroxy-1-methylhydantoin], the “dose for expression of general symptoms as compared with the S-form” value with mice (mouse, in vivo, po) is recorded as “one-fifth”.
As to `CN1C(=O)NC(=O)[C@@H]1O` [S-form, (S)-(−)-5-hydroxy-1-methylhydantoin], in data set [1] (200 mg/kg/day oral, 7th to 17th days from administration of adenine, control group 4.37±0.76 mg/dL), the “increase of creatinine in blood” value was 2.72 ± 0.55 mg/dL. For the same compound, the “suppressive action to renal insufficiency” value in data set [1] (adenine renal insufficiency rats, oral, compared with racemate) is “suppressive action to renal insufficiency the same as the racemate”. Moreover, the “conversion to metabolites (metabolite 1 and metabolite 2) in plasma” value in data set [2] is “rarely converted to its metabolites”. The “dose causing decrease of general symptoms (passivity, tactile reaction, pain sensation reaction, ipsilateral flexor reaction)” value with mice (mouse, in vivo, po) was 500 mg/kg.
In the case of `CN1C(=O)NC(=O)C1=O` [metabolite 1, 1-methylimidazolidintrion], in the data set on SD-strain rats, the lethal dose is given as 150 to 300 mg/kg.
